The CheMixHub viscosity set
Values joined by “and” are separate entries in the source; they are usually repeats but may differ in a detail not shown here. Identical values can stand only once.

Assay: xn = mol fraction of the nth substance listed

CC1(C)SC2C(NC(=O)C(N)c3ccccc3)C(=O)N2C1C(=O)O (stereo not given) + O
viscosity, 101 kPa
Settings | x1 = 9e-06 | x1 = 1e-05 | x1 = 2e-05 | x1 = 3.2e-05 | x1 = 3.6e-05 | x1 = 4e-05 | x1 = 5e-05 | x1 = 6.8e-05 | x1 = 7e-05 | x1 = 7.2e-05
305.15 K | 0.7656 mPa·s | 0.7569 mPa·s | 0.7618 mPa·s and 0.763 mPa·s | 0.7637 mPa·s | 0.7729 mPa·s | 0.7702 mPa·s | 0.7649 mPa·s | 0.7656 mPa·s | 0.773 mPa·s | 0.7701 mPa·s
310.15 K | 0.7019 mPa·s | 0.6941 mPa·s | 0.6924 mPa·s and 0.6965 mPa·s | 0.6948 mPa·s | 0.6993 mPa·s | 0.6989 mPa·s | 0.6964 mPa·s | 0.6976 mPa·s | 0.7041 mPa·s | 0.7032 mPa·s
315.15 K | 0.6419 mPa·s | 0.6361 mPa·s | 0.6342 mPa·s and 0.6376 mPa·s | 0.6356 mPa·s | 0.6442 mPa·s | 0.6407 mPa·s | 0.6381 mPa·s | 0.6398 mPa·s | 0.6421 mPa·s | 0.6399 mPa·s

Cc1cccc(C)c1 + CO
293.15 K, 101 kPa
Settings | viscosity [mPa·s]
x2 = 0.2 | 0.622
x2 = 0.4 | 0.626
x2 = 0.5 | 0.646
x2 = 0.6 | 0.662
x2 = 0.7 | 0.654
x2 = 0.8 | 0.641

O=S1(=O)CCCC1 + CC(C)CO
viscosity [mPa·s], 101 kPa
Settings | x1 = 0.0598 | x1 = 0.1852 | x1 = 0.259 | x1 = 0.3891 | x1 = 0.5066 | x1 = 0.5903 | x1 = 0.7089 | x1 = 0.7888 | x1 = 0.9464
303.15 K | 2.606 | 2.541 | 2.648 | 2.978 | 3.416 | 3.853 | 4.763 | 5.677 | 6.708
308.15 K | 2.261 | 2.222 | 2.319 | 2.611 | 3.017 | 3.414 | 4.229 | 5.037 | 7.667
313.15 K | 1.971 | 1.954 | 2.045 | 2.309 | 2.681 | 3.043 | 3.778 | 4.493 | 6.786

Nc1ccccc1Cl + COCCO
303.15 K, 101 kPa
Settings | viscosity [mPa·s]
x1 = 0.093 | 2.184
x1 = 0.157 | 2.388
x1 = 0.2242 | 2.597
x1 = 0.3168 | 2.811
x1 = 0.415 | 3.024
x1 = 0.5093 | 3.223
x1 = 0.6253 | 3.414
x1 = 0.7713 | 3.581
x1 = 0.8914 | 3.711

O=S1(=O)CCCC1 + CCC(C)O
viscosity [mPa·s], 101 kPa
Settings | x1 = 0.0998 | x1 = 0.1988 | x1 = 0.2898 | x1 = 0.3908 | x1 = 0.4973 | x1 = 0.5943 | x1 = 0.7033 | x1 = 0.78 | x1 = 0.9045
303.15 K | 2.151 | – | 2.299 | 2.55 | 2.933 | 3.428 | 4.266 | 5.138 | 7.383
308.15 K | 1.858 | 1.884 | 2.015 | 2.246 | 2.597 | 3.049 | 3.799 | 4.576 | 6.529
313.15 K | 1.615 | 1.655 | – | 1.993 | 2.316 | 2.728 | 3.407 | 4.097 | 5.806

Nc1ccccc1Cl + CCCCOCCO
303.15 K, 101 kPa
Settings | viscosity [mPa·s]
x1 = 0.1461 | 3.066
x1 = 0.2298 | 3.194
x1 = 0.3377 | 3.344
x1 = 0.4573 | 3.496
x1 = 0.563 | 3.619
x1 = 0.6667 | 3.722
x1 = 0.7494 | 3.786
x1 = 0.8351 | 3.833
x1 = 0.9459 | 3.859

O=S1(=O)CCCC1 + C1COCCO1
viscosity [mPa·s], 101 kPa
Settings | x1 = 0.0809 | x1 = 0.1742 | x1 = 0.2786 | x1 = 0.3855 | x1 = 0.4739 | x1 = 0.5744 | x1 = 0.6247 | x1 = 0.7169 | x1 = 0.8462 | x1 = 0.9062
303.15 K | 1.276 | 1.517 | 1.854 | 2.293 | 2.756 | 3.428 | 3.841 | 4.786 | 6.656 | 7.852
313.15 K | 1.086 | 1.284 | 1.558 | 1.912 | 2.28 | 2.809 | 3.13 | 3.861 | 5.275 | 6.164
323.15 K | 0.9369 | 1.104 | 1.332 | 1.622 | 1.922 | 2.348 | 2.605 | 3.182 | 4.278 | 4.942

Nc1ccccc1Cl + COc1ccccc1
viscosity [mPa·s], 101 kPa
Settings | x2 = 0.1009 | x2 = 0.1969 | x2 = 0.2948 | x2 = 0.3986 | x2 = 0.4961 | x2 = 0.5977 | x2 = 0.6935 | x2 = 0.7952 | x2 = 0.9001
298.15 K | 2.72 | 2.454 | 2.19 | 1.958 | 1.746 | 1.566 | 1.404 | 1.27 | 1.124
303.15 K | 2.42 | 2.196 | 1.969 | 1.762 | 1.583 | 1.427 | 1.285 | 1.156 | 1.044
308.15 K | 2.162 | 1.971 | 1.772 | 1.595 | 1.438 | 1.302 | 1.176 | 1.064 | 0.9578
313.15 K | 1.939 | 1.773 | 1.6 | 1.446 | 1.309 | 1.189 | 1.08 | 0.9804 | 0.8856

CCCCn1cc[n+](C)c1.F[B-](F)(F)F + CC(C)O
101.33 kPa
Settings | viscosity [mPa·s]
293.15 K, x1 = 0.8458 | 68.89
293.15 K, x1 = 0.9327 | 95.48
298.15 K, x1 = 0.1585 | 7.02
298.15 K, x1 = 0.9327 | 82.35
303.15 K, x1 = 0.2402 | 9.55
303.15 K, x1 = 0.9327 | 70.16
308.15 K, x1 = 0.2402 | 8.45
313.15 K, x1 = 0.2402 | 6.79
313.15 K, x1 = 0.3505 | 9.91
318.15 K, x1 = 0.3505 | 7.14
318.15 K, x1 = 0.4422 | 9.33
323.15 K, x1 = 0.5619 | 8.26

Nc1ccccc1Cl + Cc1ccccc1Cl
viscosity [mPa·s], 101 kPa
Settings | x1 = 0.11 | x1 = 0.2176 | x1 = 0.3228 | x1 = 0.4258 | x1 = 0.5266 | x1 = 0.6253 | x1 = 0.7219 | x1 = 0.8165 | x1 = 0.9092
303.15 K | 1.073 | 1.284 | 1.521 | 1.782 | 2.069 | 2.379 | 2.711 | 3.065 | 3.437
308.15 K | 0.9808 | 1.175 | 1.392 | 1.63 | 1.888 | 2.164 | 2.458 | 2.765 | 3.084
313.15 K | 0.8896 | 1.07 | 1.271 | 1.49 | 1.726 | 1.976 | 2.238 | 2.507 | 2.783
318.15 K | 0.7935 | 0.9642 | 1.153 | 1.358 | 1.578 | 1.808 | 2.045 | 2.286 | 2.526
